Measured values published in the SangsterLogP compilation.

SMILES	logP
COc1cc(CCN)cc(OC)c1OC	0.78
CCc1cccc(OCC(=O)O)c1	2.25
Oc1cc(O)cc(O)c1	0.16
CCCCNCCCC	2.83
O=c1ccn(C2C=CC(CO)O2)c(=O)[nH]1 (stereo unspecified)	-1.07
CCCCOc1cc(C(=O)NCCN(CC)CC)c2ccccc2n1	4.4
COc1cccc(C(=O)O)c1	2.02
Nc1nc(N)c2ncn([C@H]3C[C@H](O)[C@@H](CO)O3)c2n1	-0.52
CCI	2
NCCc1cccnc1	-0.11
CNC(=O)Oc1ccc(C)cc1	1.66
CNC(=O)CNC(C)=O	-1.56
CCN1CCCC1CNC(=O)c1cc(S(=O)(=O)CC)ccc1OC (stereo unspecified)	1.06
COc1ccc2c(c1)c(CC(=O)O)c(C)n2C(=O)c1ccc(Cl)cc1	4.27
CC1(C)S[C@@H]2[C@H](NC(=O)[C@H](N)c3ccccc3)C(=O)N2[C@H]1C(=O)O	1.35
c1ncncn1	-0.73
COc1cccc(O)c1	1.34
CC(C)(c1ccc(O)cc1)c1ccc(O)cc1	3.32
O=NN1CCCCC1	0.36
Cc1c(Cl)cccc1Nc1ccccc1C(=O)O	5.17
Cn1nnc2ccccc21	1.13
O=[N+]([O-])c1ccccc1	1.85
COc1cccc(N)c1	0.93
CCC=Cc1ccccc1[N+](=O)[O-]	2.86
O=[N+]([O-])c1ccc2c(ccc[n+]2[O-])c1	0.39
CCN	-0.13

SMILES	logP
CN1CCN(C2=Nc3cc(Cl)ccc3Nc3ccccc32)CC1	3.23
COC(=O)C(C#N)=NNc1cc(Cl)c(Cl)c(Cl)c1	5.22
Nc1cccc(Cl)c1	1.88
Fc1c(F)c(F)c(F)c(F)c1F	2.55
Oc1cccc2cccnc12	2.02
O=C(O)c1cc([N+](=O)[O-])ccc1O	2.34
O=c1cccccc1O	0.53
O=[N+]([O-])c1ccc(O)c([N+](=O)[O-])c1	1.67
CCC1(c2ccccc2)C(=O)NC(=O)NC1=O	1.47
OCCCc1ccccc1	1.88
CN(C)C	0.16
Cc1ccc(N=C=S)cc1	3.92
O=c1[nH]c2ccccc2n1CCCN1CCC(n2c(=O)[nH]c3cc(Cl)ccc32)CC1	3.9
COc1cccc(CC(C)N)c1OC (stereo unspecified)	1.49
CCOC(=O)c1ccccn1	0.87
CC(C)C[C@H](N)C(=O)O	-1.52
NS(=O)(=O)c1cccc2cccnc12	0.42
Brc1ccncc1	1.54
CN1c2ccccc2C=CC1O (stereo unspecified)	1.45
Cn1cccc1	1.21
CCCC(CO)n1cnc2c(N)ncnc21 (stereo unspecified)	0.66
OCC1OC(Oc2ccc(O)cc2)C(O)C(O)C1O (stereo unspecified)	-1.35
CCc1ccccc1N	1.74
O=c1ccn([C@H]2CC[C@@H](CO)O2)c(=O)[nH]1	-1
CO/N=C/c1ccccc1	2.53
CCC#N	0.16

SMILES	logP
CC1CCC(NC(=O)N(CCCl)N=O)CC1 (stereo unspecified)	3.3
C=CBr	1.57
CCCc1cc(NC(C)=O)cc(CCC)c1O	3.16
O=c1[nH]c2nc(O)nc(O)c2[nH]1	-2.17
OCc1ccncc1	0.06
CC[C@H](C)[C@H](N)C(=O)O	-1.7
NC(=O)c1ccc(N)nc1	0.7
CCOC(C)OCC	0.84
[N-]=[N+]=N[C@H]1C[C@H](n2ccc(=O)[nH]c2=O)O[C@@H]1CO	-0.32
CCCCC(C)=O	1.38
CCCCCC(=O)O	1.92
CCCCNC(=O)NCCCC	1.4
COc1ccc(NC(C)=O)cc1	1.03
Brc1ccccc1Br	3.64
CC(=O)Nc1ccc(OCC(O)CNC(C)C)cc1 (stereo unspecified)	0.79
OCC1OC(n2cnc3c(S)ncnc32)C(O)C1O (stereo unspecified)	-0.6
FC(F)(F)c1nc2cc(Cl)c(Cl)cc2[nH]1	3.49
Cc1ccc(CC(=O)O)cc1	1.86
OCCCCc1ccccc1	2.35
Nc1cccnc1	0.11
O=C1CCCC(=O)N1	1.9
O=c1ccn([C@@H]2O[C@H](CO)[C@@H](O)[C@H]2O)c(=O)[nH]1	-1.98
NC(=O)CCCc1ccccn1	-0.09
O=C(O)CONC(=O)Nc1ccccc1	0.26
O=[N+]([O-])c1cccc2cccnc12	1.4
COC(=O)[C@H]1[C@@H](OC(=O)c2ccccc2)C[C@@H]2CC[C@H]1N2C	2.3

SMILES	logP
CC(=O)c1cccc(OCC(=O)O)c1	0.98
N#Cc1ccccc1O	1.61
CNC(=O)Oc1cccc(N(C)C)c1	1.43
CC1=CC(=O)c2ccccc2C1=O	2.2
N#Cc1ccc(NC=O)cc1	1.08
COc1ccccc1	2.11
OCc1ccccc1O	0.73
c1ccc(-c2ncc[nH]2)cc1	1.88
CC1(C)SC2C(NC(=O)C(N)c3ccc(O)cc3)C(=O)N2C1C(=O)O (stereo unspecified)	0.87
CNC(=O)Oc1ccc(OC)cc1	1.2
COC(=O)C(C#N)=NNc1cc(Cl)cc(Cl)c1	4.5
COC(=O)C(C#N)=NNc1cc(C(F)(F)F)ccc1[N+](=O)[O-]	3.44
CCCn1nnc2ccccc21	2.13
CCC1(CC)C(=O)NC(=O)NC1=O	0.65
CCc1cccc2ccccc12	4.4
Nc1ncnc2c1ncn2[C@H]1CC[C@@H](CO)O1	-0.25
CCCOC(=O)c1ccc(S(N)(=O)=O)cc1	1.75
C=CCC1(CC)C(=O)NC(=O)NC1=O	0.95
CSc1nnc(-c2ccccc2)c(=O)n1N	1.66
OC1OC[C@@H](O)[C@@H](O)[C@H]1O (stereo partly specified)	-2.32
O=[N+]([O-])c1cc(Cl)c(O)c(Cl)c1	2.94
C#CC	0.94
CCOC(C)=O	0.73
O=C(Oc1ccccc1)c1ccccc1	3.59
CC1=C(C(=O)Nc2ccccc2)SCCO1	2.14
Nc1ccc2cc3ccccc3nc2c1	2.77

SMILES	logP
CCCCc1ccc(S(N)(=O)=O)cc1	2.45
Cc1ccc(C)c2c(C)cccc12	4.9
NC(=O)c1cc([N+](=O)[O-])cc([N+](=O)[O-])c1	0.83
Cl[C@H]1[C@H](Cl)[C@@H](Cl)[C@@H](Cl)[C@H](Cl)[C@H]1Cl	3.72
Cc1cc(Cl)ccc1O	2.63
O=[N+]([O-])/C=C/c1cc([N+](=O)[O-])ccc1Cl	2.23
NNC(=O)c1ccnc(Cl)c1	0.11
COC(=O)C(C#N)=NNc1ccc(Cl)cc1C(F)(F)F	4.66
Cc1cc([N+](=O)[O-])c2ccccc2[n+]1[O-]	1.25
Cc1ccc(OCC(=O)O)cc1	1.86
C=CCc1ccccc1OCC(O)CNC(C)C (stereo unspecified)	3.1
CNc1ccccc1	1.66
Oc1ccc2ccccc2c1	2.7
N#Cc1ccc(C(=O)O)cc1	1.56
CC(=O)Nc1ccc(C(=O)O)cc1	1.31
CCCCOCCO	0.83
CC(=O)c1ccc(OCC(=O)O)cc1	0.87
O=C(O)c1ccc(O)cc1O	1.63
C=CCOc1cc(C(=O)O)ccc1N	1.25
CCC(C)C1(CC)C(=O)NC(=O)NC1=O (stereo unspecified)	1.65
O=C(O)CCc1ccccc1	1.84
O=C(O)CCCc1ccccc1	2.42
